Earlier results as cited in patent US10925995B2, “Absorber and absorbent article using the same” (LIVEDO CORPORATION, priority 2012, dated 2021).

Conditions: in water at 25 degrees centigrade; no stage stated

Q: Which “acid dissociation constant pKa” value does the source give for `O=C(O)CCCC(=O)O` [glutaric acid] here?
A: The value was 4.13.

Q: For `O=C1O[C@H]([C@@H](O)CO)C(O)=C1O` [L-ascorbic acid], which “acid dissociation constant pKa” value is on record?
A: Its value is 4.03.

Q: For `O=C(O)C(O)c1ccccc1` (stereo not shown) [mandelic acid], which “acid dissociation constant pKa” value is on record?
A: The value was 3.19.

Q: For `O=C(O)c1cccc(Br)c1` [m-bromobenzoic acid], which “acid dissociation constant pKa” value is on record?
A: Its value is 3.81.

Q: With `C=CCC(=O)O` [vinyl acetic acid] as the compound, how does the “acid dissociation constant pKa” value read?
A: Its value is 4.12.

Q: With `NCCCC(=O)O` [4-aminobutyric acid] as the compound, how does the “acid dissociation constant pKa” value read?
A: Its value is 4.03.

Q: With `CCCCCCC(=O)O` [heptanoic acid] as the compound, how does the “acid dissociation constant pKa” value read?
A: Its value is 4.66.

Q: Which “acid dissociation constant pKa” value does the source give for `O=C(O)c1ccc(Br)cc1` [p-bromobenzoic acid] here?
A: Its value is 4.00.

Q: Which “acid dissociation constant pKa” value does the source give for `COC(=O)c1ccncc1` [methyl isonicotinate] here?
A: The value was 3.26.

Q: With `O=C(O)/C=C\c1ccccc1` [cinnamic acid (cis)] as the compound, how does the “acid dissociation constant pKa” value read?
A: The value was 3.88.

Q: With `O=C(O)CCCl` [3-chloropropionic acid] as the compound, how does the “acid dissociation constant pKa” value read?
A: Its value is 3.92.

Q: For `O=C(O)c1cccc(I)c1` [m-iodobenzoic acid], which “acid dissociation constant pKa” value is on record?
A: The value was 3.85.

Q: Which “acid dissociation constant pKa” value does the source give for `O=C(O)Cc1ccccc1` [phenylacetic acid] here?
A: Its value is 4.10.

Q: For `Nc1cccc(S(=O)(=O)O)c1` [m-aniline sulfonic acid], which “acid dissociation constant pKa” value is on record?
A: The value was 3.74.

Q: For `Nc1cccc(C(=O)O)c1` [m-aminobenzoic acid], which “acid dissociation constant pKa” value is on record?
A: Its value is 3.12.

Q: With `COC(=O)CC(O)(CC(=O)O)C(=O)O` (stereo not shown) [citric acid monomethyl ester] as the compound, how does the “acid dissociation constant pKa” value read?
A: The value was 4.35.

Q: For `COc1ccccc1C(=O)O` [o-anisic acid], which “acid dissociation constant pKa” value is on record?
A: Its value is 4.09.

Q: Which “acid dissociation constant pKa” value does the source give for `O=C(O)c1ccc(I)cc1` [p-iodobenzoic acid] here?
A: The value was 4.00.

Q: Which “acid dissociation constant pKa” value does the source give for `O=C(O)c1cccc([N+](=O)[O-])c1` [m-nitrobenzoic acid] here?
A: The value was 3.45.

Q: For `CCCCCC(=O)O` [hexanoic acid], which “acid dissociation constant pKa” value is on record?
A: The value was 4.63.

Q: For `O=C(O)CCCCCC(=O)O` [pimelic acid], which “acid dissociation constant pKa” value is on record?
A: Its value is 4.31.

Q: Which “acid dissociation constant pKa” value does the source give for `CC(=O)CCC(=O)O` [levulinic acid] here?
A: Its value is 4.44.

Q: With `O=C(O)C1CCCCC1` [cyclohexane carboxylic acid] as the compound, how does the “acid dissociation constant pKa” value read?
A: The value was 4.70.

Q: For `O=C(O)c1ccc([N+](=O)[O-])cc1` [p-nitrobenzoic acid], which “acid dissociation constant pKa” value is on record?
A: Its value is 3.44.

Q: Which “acid dissociation constant pKa” value does the source give for `O=C(O)CCCCC(=O)O` [adipic acid] here?
A: The value was 4.26.

Q: With `O=C(O)CS` [mercaptoacetic acid] as the compound, how does the “acid dissociation constant pKa” value read?
A: Its value is 3.43.

Q: For `Nc1ccc(S(=O)(=O)O)cc1` [p-aniline sulfonic acid], which “acid dissociation constant pKa” value is on record?
A: Its value is 3.23.

Q: With `N#Cc1ccc(C(=O)O)cc1` [p-cyanobenzoic acid] as the compound, how does the “acid dissociation constant pKa” value read?
A: Its value is 3.55.

Q: With `C/C=C/C(=O)O` [crotonic acid] as the compound, how does the “acid dissociation constant pKa” value read?
A: Its value is 4.69.

Q: With `CCCCC(=O)O` [valeric acid] as the compound, how does the “acid dissociation constant pKa” value read?
A: The value was 4.64.

Same assay, conditions: in water at 25 degrees centigrade; second stage

Q: Which “acid dissociation constant pKa, second stage” value does the source give for `O=C(O)c1ccncc1` [isonicotinic acid] here?
A: Its value is 4.87.

Q: Which “acid dissociation constant pKa, second stage” value does the source give for `O=C(O)c1ccccc1C(=O)O` [o-benzenedicarboxylic acid] here?
A: The value was 4.93.

Q: For `O=C(O)[C@H](O)[C@@H](O)C(=O)O` [(R,R)-tartaric acid], which “acid dissociation constant pKa, second stage” value is on record?
A: The value was 4.44.

Q: For `Nc1ccc(C(=O)O)cc1` [p-aminobenzoic acid], which “acid dissociation constant pKa, second stage” value is on record?
A: The value was 4.85.

Q: With `O=C(O)c1ccc2ccccc2n1` [quinaldic acid] as the compound, how does the “acid dissociation constant pKa, second stage” value read?
A: The value was 4.75.

Q: For `O=C(O)C(O)C(O)C(=O)O` (stereo not drawn) [d-tartaric acid], which “acid dissociation constant pKa, second stage” value is on record?
A: Its value is 3.95.

Q: Which “acid dissociation constant pKa, second stage” value does the source give for `Nc1ccccc1C(=O)O` [o-aminobenzoic acid] here?
A: Its value is 4.95.

Q: With `O=C(O)CC(O)(CC(=O)O)C(=O)O` [citric acid] as the compound, how does the “acid dissociation constant pKa, second stage” value read?
A: The value was 4.35.

Q: For `O=C(O)/C=C/C(=O)O` [fumaric acid], which “acid dissociation constant pKa, second stage” value is on record?
A: The value was 4.10.

Same assay, conditions: in water at 25 degrees centigrade; third stage

Q: For `O=C(O)c1cccc(C(=O)O)n1` [2,6-pyridinedicarboxylic acid], which “acid dissociation constant pKa, third stage” value is on record?
A: Its value is 4.68.
